Key:
MCF-7 cells [1] = assay: MTT (WST-1) assay for cytotoxicity effect of compound A on tumor cells; settings: 24 hours treatment
Experimental: The human breast cancer cell line, MCF-7, was obtained from American Type Cell Collection (ATCC) (Rockville, Mo., U.S.A.). The cells were cultured to 70-80% confluence in Dulbecco's modified Eagle medium (DMEM) (Gibco, Grand Island, N.Y., U.S.A.) with 10% fetal bovine serum (FBS) (Gibco) at 37° C. and 5% CO2. MCF-7 cells were plated overnight in a 96-well plate (4,000 cells per well). […] Next, 10 μl/well of WST-1/ECS solution from the Quick Cell Proliferation Colorimetric Assay Kit (BioVision, Inc., Milptas, Calif., U.S.A.) was added, and the solution was incubated for 2 hours at 37° C. and 5% CO2. […] The half maximal inhibitory concentrations (IC50s) were calculated from linear regression from the absorbance optical density (OD) of each triplicate concentration.

MCF-7 cells [2] = assay: Cytosolic oxidative stress; assay type: cell-based, human
MCF-7 cells [3] = assay: Cell cycle analysis; assay type: cell-based, human
MCF-7 cells [4] = assay: Induction of MCF-7 cell apoptosis; assay type: cell-based, human
MCF-7 cells [5] = assay: Fluorescent microscopy of subcellular distribution; assay type: cell-based, human; settings: 120 μg/ml, observed at 60, 120 and 360 minutes
Experimental: Low numbers of MCF-7 cells were seeded into 8-well plate (3,000 cells/well) overnight.

Experimental for Lipid solubility in oil: The suspended were vortexed and centrifuged at 3000 RPM, 10 mins periodically. Oil solvent volume was stepwise increased till completely soluble was observed and the soluble concentration were determined (Table1). The solutions were left at 24° C. overnight and were centrifuged at 5000 RPM for 20 mins. […] The suspensions were vigorously vortex and left at room temperature.

Row | Solubility in Oil (40° C.) (Lipid solubility in oil; Canola Oil) | Solubility in Oil (40° C.) (Lipid solubility in oil; Ethiodized Oil) | Solubility in Oil (40° C.) (Lipid solubility in oil; Olive Oil) | Compound | IC60 (MCF-7 cells [1]) [µg/mL] | cytosolic oxidative stress (MCF-7 cells [2]) | interference with the cell cycle (MCF-7 cells [3]) | induction of MCF-7 cell apoptosis (MCF-7 cells [4]) | entry into the nucleus (subcellular distribution) (MCF-7 cells [5])
1 |  |  |  | ((3bS)-7-hydroxy-11a-methyl-1H,2H,3H,3aH,3bH,4H,5H,9bH,10H,11H,11aH-cyclopenta[a]phenanthren-1-yl N-[(2S,3S,6R)-3-hydroxy-2-methyl-6-{[(1S,3S)-3,5,12-trihydroxy-3-(2-hydroxyacetyl)-10-methoxy-6,11-dioxo-1,2,3,4,6,11-hexahydrotetracen-1-yl]oxy}oxan-4-yl]carbamate) [Compound A] | ~120 | increased cytosolic oxidative stress | did not interfere with the cell cycle | rapidly induced MCF-7 cell apoptosis | without entering the nucleus
2 | less than 0.0001 mg/100 ml | less than 0.0001 mg/100 ml | less than 0.0001 mg/100 ml | COc1cccc2c1C(=O)c1c(O)c3c(c(O)c1C2=O)C[C@@](O)(C(=O)CO)C[C@@H]3O[C@H]1C[C@H](N)[C@H](O)[C@H](C)O1 [Doxorubicin] |  |  |  |  | 
